# Experimental data as given in patent US20190203253A1, “METHODS OF IDENTIFYING AND TREATING CANCER PATIENTS WITH AN EPHB6 DEFICIENCY” (University of Saskatchewan, priority 2016, published 2019).
# Assays:
# [1] = tested on: CD34-stained blood vessels in MDA-B6 and MDA-pc3 tumors; test: Anti-CD34 immunohistochemistry of xenograft tumors (blood vessel density); type: in vivo, NOD-SCID mice; conditions: KX2-391-treated MDA-B6 and MDA-pc3 tumors (FIG. 7B)
# Experimental: FIG. 7. Analysis of the SL interaction between EPHB6 and SRC in TNBC cells and murine xenografts. A. MDA-pc3 and MDA-B6 cells were injected into the mammary fat pad region of 4-6 weeks old NOD-SCID mice (1×10^6 cells per mouse). Mice with detectable tumors were treated twice per day with 5 mg/kg KX2-391 in DMSO/water solvent or solvent alone by oral feeding (at least 6 animals per each experimental condition). Tumor size was measured every 3 days and tumor volume was calculated with the equation: A/2*B^2, where A was long and B was short diameter of the tumor. The reduction in tumor growth in KX2-391-treated mice is presented as a percentage relative to matching solvent controls. The graph summarizes two independent experiments. Day 0 indicates the beginning of treatment with KX2-391 or matching solvent control. […] Four representative fields (at 3, 6, 9, and 12 o'clock) per each stained tumor section (one for each extracted tumor) were imaged at 100× magnification and the blood vessel density per each field was analyzed with the Image-Pro Premier software. […]
# For the immunohistochemical staining, tumors were dissected and fixed in 10% neutral- buffered formalin for 24-48 h. […] In each stained tumor section, 12, 3, 6 and 9 o'clock fields were imaged at 100× magnification and the density of stained blood vessels per field was quantified using the Image-Pro Premier software.
# [2] = tested on: BT-20 cells (EPHB6-targeting shRNA vs non-silencing shRNA); test: Drug sensitivity assay (resazurin), SRC inhibitors, BT-20 cells with silenced EPHB6; type: cell-based, human; conditions: BT-20 with EPHB6-targeting shRNA vs non-silencing shRNA, 96 h (FIGS. 6A-6E)
# Experimental: FIG. 6. SL relation between EPHB6 and SRC in BT-20 TNBC cells. A. Triple negative breast cancer cells, BT-20, were transduced with EPHB6-targeting shRNA (BT20-66-shRNA), or non-silencing shRNA (BT2O-NS). EPHB6 expression was analyzed by Western blotting with anti-EPHB6. Western blotting with anti-tubulin was used as a loading control. B. BT20-66-shRNA and BT2O-NS cells were cultured in 96-well plates with indicated concentrations of SU6656 or matching volumes of DMSO for 96 h. Cells were stained with resazurin and fluorescence was measured using a SpectraMax M5 plate reader to determine cell suppression. Five wells were analyzed per condition. […] C. […] Cells were stained with resazurin and fluorescence was measured using a SpectraMax M5 plate reader to determine cell suppression. Five wells were analyzed per condition. […] PI-stained cells were counted in at least 10 randomly captured frames. […] Stained cells were analyzed by flow cytometry and the FlowJo software. […]
# MDA-MB-231 and BT-20 cell monolayers were incubated in 96-well plates for 72 h and 96 h, respectively, with indicated concentrations of KX2-391 or SU6656, or matching volumes of DMSO as a solvent control. Treated cells were stained using resazurin by following the manufacturer's instructions and fluorescence was measured using a SpectraMax M5 microplate reader.
# [3] = tested on: MDA-pc3 and MDA-B6 cells (MDA-MB-231); test: Drug sensitivity assay (resazurin), SRC inhibitors, MDA-MB-231-derived cells; type: cell-based, human; conditions: MDA-pc3 vs MDA-B6, increasing concentrations, 72 h, resazurin (FIG. 4A, 4B)
# Experimental: FIG. 4. […] C. […] All experiments were performed at least three times.
compound,measurement,setting,value
O=C(Cc1ccc(-c2ccc(OCCN3CCOCC3)cc2)cn1)NCc1ccccc1 [KX2-391],neovascularization (CD34 staining) of treated EPHB6-positive vs EPHB6-negative tumors,[1],has not shown any differences in neovascularization
same,cell suppression after silencing of EPHB6 expression,[2],strongly increased their suppression
same,"cell suppression relative to DMSO control, EPHB6-deficient vs EPHB6-expressing cells",[3],significantly stronger suppression of EPHB6-deficent cells
